Earlier results, collected in publication PMC8917853, “Synthesis and evaluation of ^99mTc-DOTA-ARA-290 as potential SPECT tracer for targeting cardiac ischemic region” (Iranian Journal of Basic Medical Sciences, 2021).
Read-outs that look alike come from different tables or passages of the source. Non-standard residues stand in square brackets, D forms with d. pGlu = O=C1CC[C@@H](C(=O)O)N1

Columns and labels:
[1] = cited from earlier work
Text: Myocardial infarction, the most prominent cardiovascular disease outcome (CVD), is the main reason for morbidity and death in the world ([1]). Immediate and precise diagnosis of cardiac hypoxia and ischemia is very critical and crucial for appropriate treatment and prevention of myocardial damage ([2]). Evaluation of cardiac ischemic biomarkers in blood plasma, including Creatine Kinase-MB, cardiac troponin, and lactate dehydrogenase (LDH) is valuable for diagnosis; however, their levels increase in blood after a delay of time ([3]).

[2] = metabolic stability; 41 (Yang et al.); cited from earlier work
Text: Myocardial SPECT imaging as a nuclear cardiological scan has been used in many procedures for ischemic heart diseases ([36]). In the mid-1970s, […]-201 (201TI) imaging has been used to ascertain regional myocardial perfusion models at rest, stress, and acute myocardial infarction, but because of the concerns about medical exposure to ionizing radiation and lower image quality, ^201Tl was substituted by ^99mTc-labeled perfusion agents (^99mTc-sestamibi and ^99mTc-tetrofosmin). However, these SPECT agents show poor pharmacokinetic features with reducing uptake with higher flows ([37], [38]) ...

Which results are given for “[pGlu]EQLERALNSS-OH [ARA-290, 11 amino acid nonhematopoietic peptide derived from helix B of EPO]”?
half-life ([1]; in rabbits): roughly 2 min; half-life ([1]; in rats): roughly 2 min; in vivo stability [2]: 2 min
